Experimental data as given in patent publication US20210186927A1, “COMBINATION PRODUCT FOR THE INDUCTION AND/OR MAINTENANCE OF GENERAL ANESTHESIA” (priority 2018, published 2021).
Like-named read-outs stand apart in the source and are kept apart here.

What was measured:
male Sprague Dawley rats [1] = assay type: in vivo, rat
Description: Decreases in spontaneous locomotor and/or exploratory activity: Immediately after administration of each bolus injection, the animal was assessed for any changes in spontaneous locomotor and/or exploratory activity. […] If the spontaneous righting reflex (see here below) had not been lost after dosing but sedation was observed, the animal was monitored at regular intervals to assess the duration of the induced sedation.

male Sprague Dawley rats [2] = assay type: in vivo, rat; remark: listed apart in the source
Description: The spontaneous righting reflex: Before and at a series of set time points following each bolus injection, the animal was placed on its back and righting time measured. Righting normally occurs under 15 seconds. Whenever the animal was unable to right itself, it was considered that the spontaneous righting reflex had been lost and unconsciousness induced.
Duration of unconsciousness: The time lapse since the loss of the spontaneous righting reflex until its recovery was recorded and considered a measurement of the overall duration of unconsciousness.

KOR = KOR (Homo sapiens, UniProt P41145); conditions: cited from earlier work
MOR = MOR (Homo sapiens, UniProt P35372); conditions: cited from earlier work
DOR = DOR (Homo sapiens, UniProt P41143); conditions: cited from earlier work
rats [3] = conditions: cited from earlier work
rats [4] = conditions: 1.0-3.0 mg/kg i.p.; cited from earlier work
mice [5] = conditions: 0.5-2 mg/kg i.p.; cited from earlier work
Rhesus monkeys = conditions: cited from earlier work
rats [6] = conditions: 0.25-2 mg/kg i.p.; cited from earlier work
mice [7] = conditions: cited from earlier work
rats [8] = conditions: 10 mg/kg i.p.; cited from earlier work
healthy humans = conditions: cited from earlier work
monkeys = conditions: drug-discrimination study; cited from earlier work

Chain of KOR (P41145 whole entry): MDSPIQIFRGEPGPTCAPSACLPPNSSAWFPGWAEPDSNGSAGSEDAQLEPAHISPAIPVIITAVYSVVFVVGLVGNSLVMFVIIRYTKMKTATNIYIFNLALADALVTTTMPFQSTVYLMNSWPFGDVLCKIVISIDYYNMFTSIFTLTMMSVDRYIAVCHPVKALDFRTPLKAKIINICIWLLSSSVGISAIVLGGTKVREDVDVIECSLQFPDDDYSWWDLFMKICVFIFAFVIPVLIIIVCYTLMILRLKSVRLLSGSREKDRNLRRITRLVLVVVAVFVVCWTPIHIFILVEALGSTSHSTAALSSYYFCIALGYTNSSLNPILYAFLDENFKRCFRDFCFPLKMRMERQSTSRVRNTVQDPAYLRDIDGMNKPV
Chain of DOR (P41143 whole entry): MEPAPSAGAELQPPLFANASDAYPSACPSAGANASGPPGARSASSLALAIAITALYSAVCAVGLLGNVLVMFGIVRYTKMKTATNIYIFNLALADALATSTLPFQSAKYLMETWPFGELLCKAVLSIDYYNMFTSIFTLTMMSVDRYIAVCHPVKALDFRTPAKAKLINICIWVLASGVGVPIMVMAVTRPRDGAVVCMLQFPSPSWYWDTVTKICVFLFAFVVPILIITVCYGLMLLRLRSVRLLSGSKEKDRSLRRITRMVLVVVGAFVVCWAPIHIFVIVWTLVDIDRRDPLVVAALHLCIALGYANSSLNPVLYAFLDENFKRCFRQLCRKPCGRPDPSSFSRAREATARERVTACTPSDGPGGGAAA
Chain of MOR (P35372 whole entry): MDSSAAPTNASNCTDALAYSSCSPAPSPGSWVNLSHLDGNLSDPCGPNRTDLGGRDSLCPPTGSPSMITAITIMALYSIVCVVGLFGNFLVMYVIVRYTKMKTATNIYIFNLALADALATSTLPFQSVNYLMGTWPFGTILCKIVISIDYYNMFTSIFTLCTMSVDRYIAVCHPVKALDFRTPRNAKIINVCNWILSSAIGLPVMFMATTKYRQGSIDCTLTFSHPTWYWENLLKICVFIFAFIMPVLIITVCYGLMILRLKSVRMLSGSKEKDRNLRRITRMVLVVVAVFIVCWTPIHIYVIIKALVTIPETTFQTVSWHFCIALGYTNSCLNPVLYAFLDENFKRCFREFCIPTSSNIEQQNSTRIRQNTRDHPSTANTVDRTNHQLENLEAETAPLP

What does the source list for `COC(=O)[C@@H]1C[C@H](OC(C)=O)C(=O)[C@H]2[C@@]1(C)CC[C@H]1C(=O)O[C@H](c3ccoc3)C[C@]21C` [SA, Salvinorin A]?
time at which locomotor and exploratory activity were comparable to pre-injection values (male Sprague Dawley rats [1]; SA alone 6.2 mg/kg i.v.): 30 min; sedation (male Sprague Dawley rats [1]; SA alone 6.2 mg/kg i.v., Example 2 Rat number 2): mild sedation; time at which locomotor and exploratory activity were comparable to baseline (male Sprague Dawley rats [1]; SA alone 6.4 mg/kg i.p.): 30 min; sedation (male Sprague Dawley rats [1]; SA alone 6.4 mg/kg i.p., Example 1 Rat number 2): light sedation; time at which locomotor and exploratory activity were comparable to pre-injection values (male Sprague Dawley rats [1]; SA alone 12.0 mg/kg i.v.): 30 min; sedation (male Sprague Dawley rats [1]; SA alone 12.0 mg/kg i.v., Example 2 Rat number 3): mild sedation; time at which locomotor and exploratory activity were comparable to baseline (male Sprague Dawley rats [1]; SA alone 12.9 mg/kg i.p.): 40 min; sedation (male Sprague Dawley rats [1]; SA alone 12.9 mg/kg i.p., Example 1 Rat number 3): slight sedation of longer duration; loss of consciousness or general anesthesia (male Sprague Dawley rats [2]; SA alone 6.2 mg/kg i.v.): no loss of consciousness or general anesthesia; righting time (spontaneous righting reflex) (male Sprague Dawley rats [2]; SA alone 6.2 mg/kg i.v., 10 minutes after injection): 8 s; loss of consciousness or general anesthesia (male Sprague Dawley rats [2]; SA alone 6.4 mg/kg i.p.): no loss of consciousness or general anesthesia; righting time (spontaneous righting reflex) (male Sprague Dawley rats [2]; SA alone 6.4 mg/kg i.p., 1-40 min after injection): 1 to 2 s; loss of consciousness or general anesthesia (male Sprague Dawley rats [2]; SA alone 12.0 mg/kg i.v.): no loss of consciousness or general anesthesia; righting time (spontaneous righting reflex) (male Sprague Dawley rats [2]; SA alone 12.0 mg/kg i.v., 5 minutes after injection): 12 s; loss of consciousness or general anesthesia (male Sprague Dawley rats [2]; SA alone 12.9 mg/kg i.p.): no loss of consciousness or general anesthesia; righting time (spontaneous righting reflex) (male Sprague Dawley rats [2]; SA alone 12.9 mg/kg i.p., 1-40 min after injection): 1 to 2 s; affinity and potency values at the KOR (KOR): nanomolar range; type of activity at the KOR (KOR): full agonist; affinity for the MOR (MOR): no affinity; affinity for the DOR (DOR): no affinity; effect on spontaneous locomotor activity (rats [3]; 0.25-2 mg/kg i.p., rats): did not affect spontaneous locomotor activity; effect on locomotor activity (rats [3]; 0.4 and 0.64 mg/kg subcutaneously, rats): had no effects; effect on locomotor activity (rats [3]; repeated daily injections of 2 mg/kg i.p.): increased locomotor activity; effect on locomotor activity (rats [3]; single 2 mg/kg i.p.): no effect; changes in response rates (rats [4]): No significant changes; sedation and coordination (mice [5]): mild sedation and a loss of coordination; sedation (Rhesus monkeys; 0.032 mg/kg i.v.): sedative effects; sedation (Rhesus monkeys; 0.032 mg/kg s.c.): did not lead to overt sedation; sedation (Rhesus monkeys; i.v., maximum dose of 0.1 mg/kg): sedative effects; immobility in the forced swimming test (rats [6]): increased immobility; analgesic effects (mice [7]; 7.5 μg intracerebroventricularly): active; analgesic effects (mice [7]; 5 mg/kg i.p.): no analgesic effects; antinociceptive effects (mice [7]; 0.5-4 mg/kg intraperitoneally): dose-dependent antinociceptive effects; antinociceptive effects (rats [8]): no effects; acute effects in humans (healthy humans; acute administration to humans): intense visual and auditory hallucinations without loss of consciousness; dose at which the effects are already noticeable (healthy humans; humans): 0.25 mg; psychometric measurements of sedation (PCAG subscale of the Addiction Research Center Inventory) (healthy humans; humans): no significant dose-dependent increases; generalization between SA and ketamine (monkeys): did not find that any generalization between the two drugs is applicable

For `CN1C(=O)CN=C(c2ccccc2)c2cc(Cl)ccc21` [diazepam, Diazepam, reference compound], which sedation (male Sprague Dawley rats [1]; rat, in vivo) is on record?
The sedation was “clear sedation”.

What about the “time of full recovery of spontaneous locomotor and exploratory activity” value (male Sprague Dawley rats [1]; rat, in vivo) of the same compound?
Its value is 1 h.

And the “time of partial recovery of spontaneous locomotor and exploratory activity” value (male Sprague Dawley rats [1]; rat, in vivo)?
The value was 30 min.

What about the “time to decrease in spontaneous locomotor and exploratory activity” value (male Sprague Dawley rats [1]; rat, in vivo) of the same compound?
Its value is 1 min.

And the time to sedation (male Sprague Dawley rats [1]; rat, in vivo)?
Its time to sedation is “immediately after the end of the injection”.

What about the “loss of consciousness or general anesthesia” value (male Sprague Dawley rats [2]; rat, in vivo) of the same compound?
Its value is “did not induce loss of consciousness or general anesthesia”.

What about the “righting time (spontaneous righting reflex)” value (male Sprague Dawley rats [2]; rat, in vivo) of the same compound?
The value was 2 to 3 s.

With `Cc1cccc(C(C)c2cnc[nH]2)c1C` (centres unmarked) [medetomidine, Medetomidine, reference compound] as the compound, how does the sedation (male Sprague Dawley rats [1]; rat, in vivo) read?
Its sedation is “sedative effect”.

And the sedation lasted until (male Sprague Dawley rats [1]; rat, in vivo)?
Its sedation lasted until is 30 min.

What about the “time to sedation after the injection” value (male Sprague Dawley rats [1]; rat, in vivo) of the same compound?
The value was 30 s.

And the “loss of consciousness or general anesthesia” value (male Sprague Dawley rats [2]; rat, in vivo)?
The value was “did not induce loss of consciousness or general anesthesia”.

And the “righting time (spontaneous righting reflex)” value (male Sprague Dawley rats [2]; rat, in vivo)?
Its value is 2 to 3 s.
